# Experiments:
# Type in all cases: biochemical
# IRAK1 = target: T1, IRAK1 (Homo sapiens, UniProt P51617); assay: RBC HotSpot Kinase Assay, IRAK1
# T1 construct: purchased Reaction Biology (RBC HotSpot Kinase Assay)
# Excerpt: (§1) This assay uses the isolated kinase enzyme. This assay is very useful for determining competition of the inhibitor for ATP and/or substrates and for measuring the kinetics of enzyme inhibition. […] Unlike kinase binding assays that measure competition for ATP, the HotSpot Kinase Assay is a functional assay that measures catalytic activity; as such it measures relative functional potency regardless of the mechanism of enzyme inhibition. This assay uses the form of the various enzymes that are easiest to express, which may not necessarily be the form of the enzyme that exist in the cell. (Sometimes the carboxy terminus has been truncated to aid in expression, or, if it is a receptor kinase, the enzyme itself is isolated from the other parts of the receptor that are involved in regulating kinase activity.)
# (§2) The reagent used was as follows: Base Reaction buffer; 20 mM Hepes (pH 7.5), 10 mM MgCl2, 1 mM EGTA, 0.01% Brij35, 0.02 mg/ml BSA, 0.1 mM Na3VO4, 2 mM DTT, 1% DMSO. Required cofactors were added individually to each kinase reaction.
# (§3) The reaction procedure was as follows: • 1) Substrates were prepared in freshly prepared Reaction Buffer. • 2) Any required cofactors were delivered to the substrate solution above. • 3) Kinase was delivered into the substrate solution and gently mixed. • 4) Compounds were delivered in 100% DMSO into the kinase reaction mixture by Acoustic technology (Echo550; nanoliter range), followed by incubation for 20 min at room temp. • 5) ^33P-ATP was delivered into the reaction mixture to initiate the reaction. • 6) The mixture was incubated for 2 hours at room temperature. • 7) Kinase activity was detected by P81 filter-binding method.
# IRAK4 = target: T2, IRAK4 (Homo sapiens, UniProt Q9NWZ3); assay: RBC HotSpot Kinase Assay, IRAK4; parameters: purchased Reaction Biology (RBC HotSpot Kinase Assay)
# T2 sequence (Q9NWZ3 1-460): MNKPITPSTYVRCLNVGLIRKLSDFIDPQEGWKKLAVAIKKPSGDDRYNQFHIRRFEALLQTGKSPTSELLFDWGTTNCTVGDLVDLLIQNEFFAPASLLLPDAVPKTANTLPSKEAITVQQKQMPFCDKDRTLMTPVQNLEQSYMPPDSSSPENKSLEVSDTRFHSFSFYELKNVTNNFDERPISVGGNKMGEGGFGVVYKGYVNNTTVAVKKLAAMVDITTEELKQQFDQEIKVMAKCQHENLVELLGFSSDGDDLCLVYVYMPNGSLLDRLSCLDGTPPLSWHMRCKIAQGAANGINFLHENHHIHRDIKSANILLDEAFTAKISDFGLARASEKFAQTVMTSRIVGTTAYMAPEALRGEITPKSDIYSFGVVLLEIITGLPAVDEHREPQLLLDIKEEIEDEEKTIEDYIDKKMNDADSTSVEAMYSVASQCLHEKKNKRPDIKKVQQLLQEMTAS
# Excerpt: as §1, §2, §3
# FLT3 = target: T3, FLT3 (Homo sapiens, UniProt P36888); assay: RBC HotSpot Kinase Assay, FLT3
# T3 construct: purchased Reaction Biology (RBC HotSpot Kinase Assay)
# T3 sequence (P36888 564-958 limits assumed): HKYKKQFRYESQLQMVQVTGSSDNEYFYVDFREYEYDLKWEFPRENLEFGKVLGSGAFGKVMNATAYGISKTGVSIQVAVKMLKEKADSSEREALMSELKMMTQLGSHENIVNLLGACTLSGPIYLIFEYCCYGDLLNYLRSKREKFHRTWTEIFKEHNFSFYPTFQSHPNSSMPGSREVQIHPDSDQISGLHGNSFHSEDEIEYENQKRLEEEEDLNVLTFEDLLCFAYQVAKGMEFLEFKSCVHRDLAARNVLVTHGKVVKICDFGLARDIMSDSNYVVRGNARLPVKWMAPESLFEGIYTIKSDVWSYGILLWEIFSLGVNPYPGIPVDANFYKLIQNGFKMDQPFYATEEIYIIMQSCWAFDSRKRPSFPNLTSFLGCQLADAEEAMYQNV
# Excerpt: as §1, §2, §3
# T1 sequence (P51617 whole entry): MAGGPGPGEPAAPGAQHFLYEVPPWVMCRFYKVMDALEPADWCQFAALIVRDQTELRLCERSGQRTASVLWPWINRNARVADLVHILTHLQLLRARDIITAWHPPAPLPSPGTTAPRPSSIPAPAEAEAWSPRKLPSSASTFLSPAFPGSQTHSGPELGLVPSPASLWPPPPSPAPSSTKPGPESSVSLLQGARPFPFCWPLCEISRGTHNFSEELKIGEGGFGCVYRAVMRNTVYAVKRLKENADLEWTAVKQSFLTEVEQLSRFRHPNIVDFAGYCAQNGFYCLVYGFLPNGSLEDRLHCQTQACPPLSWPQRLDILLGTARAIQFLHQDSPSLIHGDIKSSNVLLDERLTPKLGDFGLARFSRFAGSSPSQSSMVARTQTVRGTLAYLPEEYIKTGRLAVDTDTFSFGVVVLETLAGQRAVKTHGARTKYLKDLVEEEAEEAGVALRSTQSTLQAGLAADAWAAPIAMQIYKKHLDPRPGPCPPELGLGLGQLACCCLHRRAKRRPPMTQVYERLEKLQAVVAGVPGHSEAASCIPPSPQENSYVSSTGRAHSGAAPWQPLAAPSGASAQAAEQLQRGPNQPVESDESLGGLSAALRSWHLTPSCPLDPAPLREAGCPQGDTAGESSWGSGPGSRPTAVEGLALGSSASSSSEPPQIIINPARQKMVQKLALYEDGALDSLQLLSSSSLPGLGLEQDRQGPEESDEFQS
IC50 (IRAK1),IC50 (IRAK4),IC50 (FLT3),SMILES
6580 nM,2360 nM,2 nM,"c1ccc(-n2cc(-c3ccc4ncc(-c5cccc(NC6CCNC6)n5)n4n3)cn2)cc1 (stereo not drawn) [Compound 28, 6-(6-(1-phenyl-1H-pyrazol-4-yl)imidazo[1,2-b]pyridazin-3-yl)-N-(pyrrolidin-3-yl)pyridin-2-amine]"
13000 nM,2460 nM,4 nM,"c1cc(NC2CCNC2)nc(-c2cnc3ccc(-c4cnn(C5CCOCC5)c4)nn23)c1 (stereo not drawn) [Compound 29, N-(pyrrolidin-3-yl)-6-(6-(1-(tetrahydro-2H-pyran-4-yl)-1H-pyrazol-4-yl)imidazo[1,2-b]pyridazin-3-yl)pyridin-2-amine]"
565 nM,104 nM,2 nM,"Cn1cc(-c2ccc3ncc(-c4cccc(NC5CCNC5)n4)n3n2)cn1 (stereo not drawn) [Compound 30, 6-(6-(1-methyl-1H-pyrazol-4-yl)imidazo[1,2-b]pyridazin-3-yl)-N-(pyrrolidin-3-yl)pyridin-2-amine]"
49 nM,6 nM,0.5 nM,"c1cc(NC2CC3(CNC3)C2)nc(-c2cnc3ccc(-c4cn[nH]c4)nn23)c1 [Compound 31, N-(6-(6-(1H-pyrazol-4-yl)imidazo[1,2-b]pyridazin-3-yl)pyridin-2-yl)-2-azaspiro[3.3]heptan-6-amine]"
3410 nM,630 nM,9 nM,"CC(C)n1cc(-c2ccc3ncc(-c4cccc(NC5CC6(CNC6)C5)n4)n3n2)cn1 [Compound 32, N-(6-(6-(1-isopropyl-1H-pyrazol-4-yl)imidazo[1,2-b]pyridazin-3-yl)pyridin-2-yl)-2-azaspiro[3.3]heptan-6-amine]"
> 10000 nM,3360 nM,16 nM,"c1ccc(-n2cc(-c3ccc4ncc(-c5cccc(NC6CC7(CNC7)C6)n5)n4n3)cn2)cc1 [Compound 33, N-(6-(6-(1-phenyl-1H-pyrazol-4-yl)imidazo[1,2-b]pyridazin-3-yl)pyridin-2-yl)-2-azaspiro[3.3]heptan-6-amine]"
> 10000 nM,5070 nM,16 nM,"c1cc(NC2CC3(CNC3)C2)nc(-c2cnc3ccc(-c4cnn(C5CCOCC5)c4)nn23)c1 [Compound 34, N-(6-(6-(1-(tetrahydro-2H-pyran-4-yl)-1H-pyrazol-4-yl)imidazo[1,2-b]pyridazin-3-yl)pyridin-2-yl)-2-azaspiro[3.3]heptan-6-amine]"
2820 nM,126 nM,3 nM,"Cn1cc(-c2ccc3ncc(-c4cccc(NC5CC6(CNC6)C5)n4)n3n2)cn1 [Compound 35, N-(6-(6-(1-methyl-1H-pyrazol-4-yl)imidazo[1,2-b]pyridazin-3-yl)pyridin-2-yl)-2-azaspiro[3.3]heptan-6-amine]"
3780 nM,2700 nM,5 nM,"Cc1oncc1-c1ccc2ncc(-c3cccc(NC4CC5(CNC5)C4)n3)n2n1 [Compound 36, N-(6-(6-(5-methylisoxazol-4-yl)imidazo[1,2-b]pyridazin-3-yl)pyridin-2-yl)-2-azaspiro[3.3]heptan-6-amine]"
> 10000 nM,4320 nM,7 nM,"c1cc(NC2CC3(CNC3)C2)nc(-c2cnc3ccc(-c4cnn(C5CNC5)c4)nn23)c1 [Compound 37, N-(6-(6-(1-(azetidin-3-yl)-1H-pyrazol-4-yl)imidazo[1,2-b]pyridazin-3-yl)pyridin-2-yl)-2-azaspiro[3.3]heptan-6-amine]"
23 nM,2 nM,< 0.5 nM,"c1cc(NC2CC3(CCNC3)C2)nc(-c2cnc3ccc(-c4cn[nH]c4)nn23)c1 (stereo not drawn) [Compound 38, N-(6-(6-(1H-pyrazol-4-yl)imidazo[1,2-b]pyridazin-3-yl)pyridin-2-yl)-6-azaspiro[3.4]octan-2-amine]"
2330 nM,321 nM,8 nM,"CC(C)n1cc(-c2ccc3ncc(-c4cccc(NC5CC6(CCNC6)C5)n4)n3n2)cn1 (stereo not drawn) [Compound 39, N-(6-(6-(1-isopropyl-1H-pyrazol-4-yl)imidazo[1,2-b]pyridazin-3-yl)pyridin-2-yl)-6-azaspiro[3.4]octan-2-amine]"
